A short description of series [1]: GC-MS/MS quantification of B[a]P, PYR and TQE in tissues. The series is classed as in vivo, mice (C57BL6J).
A short description of series [2]: SERS detection and time profile of PAHs/PAC in murine tissue extracts. The series is classed as in vivo, mice (C57BL6J).
The mark [3] stands for this setting: 24, 48, 72 h post-injection, t(1) < 12.71, p > 0.05 as printed.

On to `O=C1c2ccccc2C(=O)c2cc3ccccc3cc21` [TQE, 5,12-Naphthacenequinone], for which the “Statistical significance of GC-MS/MS tissue concentrations” value (“Statistical significance” for short) in series [1] (setting [3]) is “statistically significant across all tissues and time points”. In addition, in series [1] (IP mixture, brain, kidney, liver, lung, 24-72 h post-exposure), the “Tissue accumulation relative to the other analyzed compounds” value is “lowest accumulation”. Also, the “Detection in liver and kidney tissues using SERS and SEIRA” value (“Detection in liver and kidney tissues” for short) in series [2] (mouse, in vivo) was “successful detection”.
Regarding `c1ccc2c(c1)cc1ccc3cccc4ccc2c1c34` [B[a]P, benzo(a)pyrene], the “Statistical significance” value in series [1] (female, C57BL6J, mouse, in vivo) is on record as “statistically significant except in lung at 72 hours post-injection”. Also, the “Detection in liver and kidney tissues” value in series [2] (mouse, in vivo) is recorded as “successful detection”.
For `c1cc2ccc3cccc4ccc(c1)c2c34` [PYR, pyrene], the “Statistical significance” value in series [1] (setting [3]) is “statistically significant across all tissues and time points”. Moreover, in series [2] (mice exposed to individual PAHs or PACs, Figs. S3 and S4), the “Detection in liver and kidney tissues” value is given as “successful detection”.

The record behind these values is paper PMC13375149 (Journal of Raman spectroscopy : JRS, 2025).
